{"source": "patent US20220313700A1", "about": "“METHODS FOR TREATING MAP3K8 POSITIVE CANCERS” (CELL RESPONSE, INC., priority 2019, published 2022)", "key": {"H23 NSCLC cell line": {"tested_on": "H23 NSCLC cell line", "assay": "Alamar blue proliferation assay, H23", "format": "cell-based", "conditions": "H23, 72 hours, vs no drug", "method": "(§1) The experiments have been performed in the following way. Three thousand cells in suspension in the medium normally used to grow these particular cells have been placed in an individual well within a 96 well tissue culture plate. Following cell attachment, the drugs have added to the wells to achieve the final indicated concentration. Subsequently, the cells were incubated for 72 hours in a standard tissue culture incubator at 37 degrees Celsius in an atmosphere containing 5% CO2. Following 66 hours, Alamar blue was added to the cells. Six hours later (72 hours from the addition of drug) the 96 well plate was placed in a fluorescence plate reader to measure for Alamar blue fluorescence (excitation wavelength of 540-570 nm (peak excitation is 560 nm)). Fluorescence emission was read at 580-610 nm (peak emission is 590 nm). This enabled the determination of the number of live cells present in each well. Wells containing each drug were compared to control wells where no drug was added. In each experiment, each condition was performed in multiple technical repeats of between four and eight times, by using between four and eight wells that were treated identically Each and every experiment was repeated at least three times on different days. In the data shown here, a representative example of each experiment is shown."}, "H358 NSCLC cell line": {"tested_on": "H358 NSCLC cell line", "assay": "Alamar blue proliferation assay, H358", "format": "cell-based", "conditions": "H358, 72 hours, vs no drug", "method": "as §1"}, "A549 NSCLC cell line": {"tested_on": "A549 NSCLC cell line", "assay": "Alamar blue proliferation assay, A549", "format": "cell-based", "conditions": "A549, 72 hours", "method": "as §1"}, "[1]": {"tested_on": "LOVO colorectal cell line", "assay": "Alamar blue proliferation assay, LOVO", "format": "cell-based", "conditions": "72 hours, FIG. 7, FIG. 10", "method": "as §1, with “Following cell attachment, the drugs have added to the wells to achieve the final indicated concentration.” left out, “days.” for “days. In the data shown here, a representative example of each experiment is shown.”"}, "DLD1 CRC cell line": {"tested_on": "DLD1 CRC cell line", "assay": "Alamar blue proliferation assay, DLD1", "format": "cell-based", "conditions": "DLD1, 72 hours; for inhibitory effect on proliferation (in words): FIG. 7, FIG. 9, FIG. 20", "method": "as §1, with “Following cell attachment, the drugs have added to the wells to achieve the final indicated concentration.” left out, “days.” for “days. In the data shown here, a representative example of each experiment is shown.”"}, "HCT15 CRC cell line": {"tested_on": "HCT15 CRC cell line", "assay": "Alamar blue proliferation assay, HCT15", "format": "cell-based", "conditions": "HCT15, 72 hours; for inhibitory effect on proliferation (in words): FIG. 7, FIG. 9, FIG. 19, FIG. 20; for inhibition of proliferation: vs no drug, FIG. 8, FIG. 9", "method": "as §1, with “Following cell attachment, the drugs have added to the wells to achieve the final indicated concentration.” left out, “days.” for “days. In the data shown here, a representative example of each experiment is shown.”"}, "H1975 NSCLC cell line": {"tested_on": "H1975 NSCLC cell line", "assay": "Alamar blue proliferation assay, H1975", "format": "cell-based", "conditions": "H1975, 72 hours, vs no drug, FIG. 14, 16, 17", "method": "as §1"}, "11-18 NSCLC cell line": {"tested_on": "11-18 NSCLC cell line", "assay": "Alamar blue proliferation assay, 11-18", "format": "cell-based", "conditions": "11-18, 72 hours, FIG. 14, FIG. 17", "method": "as §1"}, "COT": {"target": "COT (Homo sapiens, UniProt P41279)", "sequence (P41279 whole entry)": "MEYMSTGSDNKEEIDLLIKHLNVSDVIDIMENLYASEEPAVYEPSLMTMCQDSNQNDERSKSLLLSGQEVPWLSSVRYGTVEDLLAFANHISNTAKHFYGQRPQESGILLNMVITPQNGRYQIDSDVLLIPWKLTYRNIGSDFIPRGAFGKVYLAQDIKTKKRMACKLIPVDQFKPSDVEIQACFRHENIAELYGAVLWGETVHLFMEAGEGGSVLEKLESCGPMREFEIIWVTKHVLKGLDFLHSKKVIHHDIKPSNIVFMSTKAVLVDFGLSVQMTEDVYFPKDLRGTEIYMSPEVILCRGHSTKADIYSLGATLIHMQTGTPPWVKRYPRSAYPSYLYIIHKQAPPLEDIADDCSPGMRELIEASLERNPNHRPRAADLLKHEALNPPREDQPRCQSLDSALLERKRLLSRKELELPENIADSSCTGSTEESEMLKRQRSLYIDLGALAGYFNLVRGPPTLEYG", "conditions": "cited from earlier work"}, "[2]": {"tested_on": "IKKβ, JNK1α, p38, EGFR, CK1α, CDK2, JAK3, MST4, GSK3β", "conditions": "cited from earlier work"}, "ERK phosphorylation": {"tested_on": "ERK phosphorylation", "conditions": "cited from earlier work"}, "[3]": {"tested_on": "four other related kinases", "conditions": "cited from earlier work"}, "intact blood cells": {"tested_on": "intact blood cells", "conditions": "cited from earlier work"}, "CRC cell line HT29": {"tested_on": "CRC cell line HT29", "assay": "Alamar blue proliferation assay, HT29", "format": "cell-based", "conditions": "HT29, 72 hours, monotherapy, FIG. 13", "method": "as §1"}, "NSCLC H1975 cell line": {"tested_on": "NSCLC H1975 cell line", "assay": "siRNA knockdown proliferation assay, H1975", "format": "cell-based", "conditions": "H1975, 200 nM, FIG. 21B", "method": "as §1, with “Following cell attachment, the drugs have added to the wells to achieve the final indicated concentration.” left out, “days.” for “days. In the data shown here, a representative example of each experiment is shown.”"}, "[4]": {"tested_on": "NSCLC patients with EGFR mutations", "conditions": "cited from earlier work"}, "[5]": {"tested_on": "BxPC3 pancreatic cancer cell line", "assay": "Alamar blue proliferation assay, BxPC3", "format": "cell-based", "conditions": "BxPC3, 72 hours, vs no drug", "method": "as §1"}, "[6]": {"tested_on": "HPAFII pancreatic cancer cell line", "assay": "Alamar blue proliferation assay, HPAFII", "format": "cell-based", "conditions": "72 hours, vs no drug", "method": "as §1"}, "[7]": {"tested_on": "metastatic ROS1 positive non-small cell lung cancer (NSCLC) patients", "conditions": "cited from earlier work"}, "STE1 NSCLC cell line": {"tested_on": "STE1 NSCLC cell line", "assay": "Alamar blue proliferation assay, STE1", "format": "cell-based", "conditions": "STE1, 72 hours, FIG. 18", "method": "as §1"}}, "note": "Where two headings read alike, the source gives them in different places.", "data": [{"smiles": "C=CC(=O)N1CCN(c2nc(=O)n(-c3c(C)ccnc3C(C)C)c3nc(-c4c(O)cccc4F)c(F)cc23)[C@@H](C)C1", "note": "[AMG510, 6-fluoro-7-(2-fluoro-6-hydroxyphenyl)-1-[4-methyl-2-(propan-2-yl)pyridin-3-yl]-4-[(2S)-2-methyl-4-(prop-2-enoyl)piperazin-1-yl]-1H,2H-pyrido[2,3-d]pyrimidin-2-one]", "values": [{"measurement": "inhibition of proliferation", "setting": "H23 NSCLC cell line", "result": 50, "unit": "%"}, {"measurement": "inhibition of proliferation", "setting": "H358 NSCLC cell line", "result": 30, "unit": "%"}]}, {"smiles": "CCN1CCC(n2cc(CNc3cc(Cl)c4ncc(C#N)c(Nc5ccc(F)c(Cl)c5)c4c3)nn2)CC1", "note": "[COT inhibitor, 3-Quinolinecarbonitrile, 8-chloro-4-[(3-chloro-4-fluorophenyl)amino]-6-[[[1-(1-ethyl-4-piperidinyl)-1H-1,2,3-triazol-4-yl]methyl]amino]-3-quinolinecarbonitrile]", "values": [{"measurement": "inhibitory effect on proliferation (in words)", "setting": "A549 NSCLC cell line; FIG. 5, FIG. 6", "result": "no effect"}, {"measurement": "inhibition of proliferation", "setting": "H23 NSCLC cell line", "result": "about 30%"}, {"measurement": "inhibition of proliferation", "setting": "H358 NSCLC cell line", "result": "about 30%"}, {"measurement": "inhibitory effect on proliferation (in words)", "setting": "[1]", "result": "variable, but significant, inhibitory effect"}, {"measurement": "inhibitory effect on proliferation (in words)", "setting": "DLD1 CRC cell line", "result": "variable, but significant, inhibitory effect"}, {"measurement": "inhibitory effect on proliferation (in words)", "setting": "HCT15 CRC cell line", "result": "variable, but significant, inhibitory effect"}, {"measurement": "inhibition of proliferation", "setting": "HCT15 CRC cell line", "result": 30, "unit": "%"}, {"measurement": "inhibition of proliferation", "setting": "H1975 NSCLC cell line", "result": 20, "unit": "%"}, {"measurement": "inhibitory effect on proliferation (in words)", "setting": "11-18 NSCLC cell line", "result": "higher level of inhibition"}]}, {"smiles": "c1ccc2[nH]c(-c3n[nH]c4ccccc34)nc2c1", "note": "[FIG. 2A without methyl group]", "values": [{"measurement": "IC50", "setting": "COT; Hu et al. 2011, indazoles with benzimidazole ring, read-out: COT (TPL2) IC50", "result": 0.109, "unit": "µM"}, {"measurement": "kinase selectivity against CDK2, JAK3, MST4, GSK3β", "setting": "[2]", "result": "less selectivity"}, {"measurement": "kinase selectivity against IKKβ, JNK1α, p38, EGFR, CK1α", "setting": "[2]", "result": "good kinase selectivity"}]}, {"smiles": "Cc1c(CNCCO)cncc1-c1ccc2[nH]nc(-c3nc4ccccc4[nH]3)c2c1", "note": "[FIG. 2B]", "values": [{"measurement": "inhibition of ERK phosphorylation", "setting": "ERK phosphorylation", "result": "inhibits ERK phosphorylation"}]}, {"smiles": "NC(=O)c1cc2c(-c3cccc(-c4ccccc4)c3)cnc(N)c2s1", "note": "[FIG. 3B]", "values": [{"measurement": "IC50", "setting": "COT; thieno[2,3-c]pyridines, George et al. 2008, Cusack et al. 2009, read-out: COT IC50", "result": 0.17, "unit": "µM"}, {"measurement": "inhibition of four other related kinases relative to COT", "setting": "[3]", "result": "at least ten-fold less effective"}, {"measurement": "activity when added to intact blood cells", "setting": "intact blood cells", "result": "active"}]}, {"smiles": "CN(C)C1CCN(C(=O)c2ccc(NC(=O)Nc3ccc(-c4nc(N5CCOCC5)nc(N5CCOCC5)n4)cc3)cc2)CC1", "note": "[Gedatolisib]", "values": [{"measurement": "inhibitory effect on proliferation (in words)", "setting": "DLD1 CRC cell line", "result": "little to no inhibition"}, {"measurement": "inhibitory effect on proliferation (in words)", "setting": "HCT15 CRC cell line", "result": "little to no inhibition"}, {"measurement": "inhibitory effect on proliferation (in words)", "setting": "CRC cell line HT29", "result": "significant inhibitory effect"}]}, {"smiles": "C=CC(=O)Nc1cc(Nc2nccc(-c3cn(C)c4ccccc34)n2)c(OC)cc1N(C)CCN(C)C", "note": "[Osimertinib]", "values": [{"measurement": "reduction of relative cell number", "setting": "NSCLC H1975 cell line", "result": "~50", "unit": "%"}, {"measurement": "progression-free survival, average", "setting": "[4]; osimertinib, or erlotinib/gefitinib/afatinib followed by osimertinib", "result": 18, "unit": "months"}, {"measurement": "patients who respond", "setting": "[4]; patients relapsed after first or second line EGFR inhibitors", "result": "Fifty percent"}]}, {"smiles": "CC(C)Nc1cc(-c2c[nH]c(C(=O)N[C@H](CO)c3cccc(Cl)c3)c2)c(Cl)cn1", "note": "[Ulixertinib]", "values": [{"measurement": "inhibition of proliferation", "setting": "A549 NSCLC cell line; vs no drug, FIG. 6", "result": 10, "unit": "%"}, {"measurement": "inhibition of proliferation", "setting": "DLD1 CRC cell line; vs no drug, FIG. 8, FIG. 9", "result": "approximately 20%"}, {"measurement": "inhibition of proliferation", "setting": "HCT15 CRC cell line", "result": 20, "unit": "%"}, {"measurement": "inhibition of proliferation", "setting": "[5]", "result": 32, "unit": "%"}, {"measurement": "inhibition of proliferation", "setting": "[6]", "result": 15, "unit": "%"}]}, {"smiles": "CN(C)C/C=C/C(=O)Nc1cc2c(Nc3ccc(F)c(Cl)c3)ncnc2cc1O[C@H]1CCOC1", "note": "[afatinib]", "values": [{"measurement": "inhibition of proliferation", "setting": "H1975 NSCLC cell line", "result": 35, "unit": "%"}]}, {"smiles": "CCc1cc2c(cc1N1CCC(N3CCOCC3)CC1)C(C)(C)c1[nH]c3cc(C#N)ccc3c1C2=O", "note": "[alectinib]", "values": [{"measurement": "clinical benefit in ROS1 positive patients", "setting": "[7]; in vivo", "result": "do not possess clinical benefit"}]}, {"smiles": "C[C@@H](Oc1cc(-c2cnn(C3CCNCC3)c2)cnc1N)c1c(Cl)ccc(F)c1Cl", "note": "[crizotinib]", "values": [{"measurement": "patients in whom treatment was initially effective", "setting": "[7]; clinical trials", "result": "70-80%"}]}, {"smiles": "CN1CCN(c2ccc(C(=O)Nc3n[nH]c4ccc(Cc5cc(F)cc(F)c5)cc34)c(NC3CCOCC3)c2)CC1", "note": "[entrectinib]", "values": [{"measurement": "duration of response", "setting": "[7]; in vivo", "result": 28.6, "unit": "months"}, {"measurement": "objective response rate (ORR)", "setting": "[7]; in vivo", "result": 78, "unit": "%"}]}, {"smiles": "COc1cc2c(Oc3ccc(NC(=O)C4(C(=O)Nc5ccc(F)cc5)CC4)cc3F)ccnc2cc1OCCCN1CCOCC1", "note": "[foretinib]", "values": [{"measurement": "clinical benefit in ROS1 positive patients", "setting": "[7]; in vivo", "result": "do not possess clinical benefit"}]}, {"smiles": "C[C@H]1Oc2cc(cnc2N)-c2c(nn(C)c2C#N)CN(C)C(=O)c2ccc(F)cc21", "note": "[loraltinib]", "values": [{"measurement": "inhibition of proliferation", "setting": "STE1 NSCLC cell line", "result": 81, "unit": "%"}]}, {"smiles": "COc1cc2c(Nc3ccc(Br)cc3F)ncnc2cc1OCC1CCN(C)CC1", "note": "[vandetanib]", "values": [{"measurement": "inhibition of proliferation", "setting": "H1975 NSCLC cell line", "result": 20, "unit": "%"}]}]}
